Measurements as given in patent publication US20180296561A1, “The Methods For Treatment Of Tumors” (The University of North Carolina at Chapel Hill, priority 2015, published 2018).

Legend:
melanoma = melanoma mouse model, therapeutic doses; cited from earlier work
[1] = system: non-small cell lung cancer (NSCLC) and acute myeloid leukemia (AML) tumor cell lines; conditions: cited from earlier work
[2] = system: monocytes and macrophages that expressed MerTK; conditions: addition of UNC569; cited from earlier work
AML = conditions: cited from earlier work
melanoma cells = conditions: cited from earlier work
[3] = system: myeloid-derived suppressor cells (MDSCs); experiment: mRNA expression in myeloid-derived suppressor cells from B16/F10 tumor-bearing mice; format: in vivo, mouse
Description: To evaluate the effect of MerTK inhibitors on myeloid-derived suppressor cells (MDSCs), C57BL/6 B16/F10 melanoma cells were implanted into syngeneic mice and tumors are allowed to form. Once tumors reached 5 mm in diameter, mice received either vehicle (0.9% NaCl) or 10, 25 or 50 mg/kg UNC2371 for 5 days. Initial experiments determined the lowest dose capable of altering the immune system. Myeloid-derived suppressor cells (MDSCs) were isolated from the spleens of tumor-bearing mice by fluorescence activated cell sorting using the cell surface markers CD11b^+Ly6G^−Ly6C^high and G-MDSCs by CD11b^+Ly6G^highLy6C^low. MDSCs' suppressive capabilities were assessed by the level of RNA for M2 capabilities.

[4] = system: Colon26 murine colon carcinoma; experiment: Immunohistochemistry of Colon26 tumors (CD3, F4/80, survivin); format: in vivo, mouse
Description: Tumors from 2 to 3 mice per treatment group were formalin fixed and paraffin embedded. The samples were analyzed by immunohistochemistry for several biological markers (data not shown). T cells (cell marker=CD3) were increased in the 1 mg/kg UNC2371 (low dose) monotherapy arm and 1 mg/kg UNC2371/anti-CTLA4 combination treatment arm compared to vehicle. […] Macrophages (cell marker F4/80) were highest in group 6 (anti-CTLA4) and group 10 (UNC2371 1 mg/kg+anti-CTLA4) with similar staining seen in these two groups. […] Tumors were also analyzed for survivin staining.

Colon26 tumor cells = experiment: Colon26 syngeneic colon carcinoma model: tumor volume, time to endpoint, survival; format: in vivo, Female BALB/c mice; conditions: for median time to endpoint (TTE): endpoint 1000 mm^3 or 45 days; for tumor growth delay (TGD) / tumor growth delay (TGD), percent / mice remaining through day 15: alone or with the antibody in the label; for mice remaining through day 15: n=9
Description: Female BALB/c mice were injected with 5×10^5 Colon26 tumor cells in 0% Matrigel sc in flank. The cell injection volume was 0.1 mL/mouse. Mice were between 7 to 10 weeks at the start of the experiment. When tumors reached an average size of 80-120 mm^3, treatment was begun. Body weight was measured five times per week for the first two weeks and then twice per week to the end of the experiment. Tumor volume was measured by caliper measurement twice per week to the end of the experiment. […] Any group with a mean body weight loss of greater than 20% or greater than 10% mortality was stopped dosing. The group was not euthanized and recovery was allowed. Within a group with greater than 20% weight loss, individuals hitting the individual body weight loss endpoint were euthanized. The endpoint of the experiment was a tumor volume of 1000 mm^3 or 45 days, whichever endpoint came first. When the endpoint was reached, the mice were euthanized.
UNC2371 was prepared in salt form and the dosing solution was prepared every day. UNC2371 was prepared in deionized water. All doses represent total substance dosed by weight of compound (including salt weight). […] Dosing solution was prepared at 5 mL/kg (0.100 mL/20 g mouse) and volume was adjusted accordingly for body weight. Dosing solutions of anti-CTLA4 9H10 (BioXcell cat# BE0131) and anti-PD1 RMP1-14 (rat Ig—BioXcell cat# BE0146) were prepared in PBS every week, stored at 4° C., and protected from light. Dosing solution was prepared at 10 mL/kg (0.200 mL/20 g mouse) and volume was adjusted accordingly for body weight.
Mice were randomized into twelve different experimental groups. Group 1 received deionized water via oral gavage (p.o.) three times daily for twenty-one days, starting with two doses on Day 1 (tid×21 first day two doses) and PBS i.p. twice weekly for two weeks (biwk×2). Groups 2-4 received UNC2371 via oral gavage (p.o.) three times daily for twenty-one days, starting with two doses on Day 1 (tid×21 first day two doses). Dosing amounts for UNC2371 for Groups 2-4 were 1, 5 and 15 mg/kg, respectively. Group 5 received anti-PD1 mAb at a dosage of 5 mg/kg i.p. biwk×2. Group 6 received anti-CTLA4 mAb at a dosage of 5 mg/kg on Day 1 and at 2.5 mg/kg on Days 4 and 7. Groups 7-9 received UNC2371 (p.o. tid×21, first day two doses) at 1, 5 and 15 mg/kg, respectively, in combination with anti-PD1 (5 mg/kg i.p. biwk×2). Groups 10-12 received UNC2371 (p.o. tid×21, first day two doses) at 1, 5 and 15 mg/kg, respectively, in combination with anti-CTLA4 (5 mg/kg on Day 1 and at 2.5 mg/kg on Days 4 and 7).

[5] = system: Colon26 murine colon carcinoma; experiment: Flow cytometry of immune cells in tumor and PBMCs, Colon26 model, Day 8; format: in vivo, mouse
Description: Tumor samples and blood samples were analyzed by flow cytometry to determine the effect of a MerTK inhibitor on immune cells alone or in combination with an immune checkpoint inhibitor in the Colon26 murine colon carcinoma mouse model. In the following example, the MerTK inhibitor UNC2371 was examined in combination with the immune checkpoint inhibitors anti-CTLA4 and anti-PD1. Experiments were performed as described in Example 3 above, except that mice in each group were euthanized at Day 8, and tumor tissue and blood samples were collected. Blood samples were collected by terminal cardiac puncture under isoflurane anesthesia. Blood was processed for peripheral blood monocyte cells (PBMCs; enriches the white cell population). Flow cytometry was conducted to identify specific white cell populations in both the PBMCs as well as the tumor cells. Tumor samples were preserved (single cell suspension) and maintained at −4° C.

B16 melanoma = B16 melanoma mouse model with radiation therapy (XRT), secondary tumor; format: in vivo
Description: MerTK ihibitors were analyzed in combination with immune checkpoint inhibitors in a B16 melanoma mouse model for their effect on secondary tumor growth in mice treated with radiation therapy (XRT). XRT is performed according to the following schematic:
Briefly, XRT (8 Gy) was given on days 9, 10, and 11. UNC2371 was given at a dose of 50 mg/kg, by oral gavage, qd, initiated at Day 8. Anti-PD1 was given at 200 μg IP on days 6, 9, and 12. Eight mice were analyzed in each treatment arm (XRT, MerTKi, anti-PD1, anti-PD1+MerTKi, XRT+MerTKi, XRT+anti-PD1, and XRT+anti-PD1+MerTKi). Tumors were implanted on both flanks, and the secondary tumor was shielded during XRT treatment. The secondary tumor was assessed for impact of abscopal effect.

## CCCCNc1ncc2c(-c3ccc(CN4CCN(C)CC4)cc3)cn(C3CCC(O)CC3)c2n1 (stereo not drawn) [UNC2025A]
melanoma
  survival: survival advantage
[1]
  colony formation: can inhibit colony formation

## CCCCNc1ncc2c(-c3ccc(F)cc3)nn(CC3CCC(N)CC3)c2n1 (stereo not drawn) [UNC569]
[2]
  production of inflammatory cytokines: restored

## CCCCNc1ncc2c(-c3ccc(S(=O)(=O)N4CCOCC4)cc3)cn(C3CCC(O)CC3)c2n1 (stereo not drawn) [UNC 1666]
AML
  myeloid survival in AML: decreases
  oncogenic signaling in AML: decreases

## CCCCNc1ncc2c(-c3ccc(S(=O)(=O)N4CCOCC4)cc3)nn(C3CCC(O)CC3)c2n1 (stereo not drawn) [UNC1062]
Melanoma cells
  activation of MERTK-mediated downstream signaling: reduced
  apoptosis in culture: induced
  colony formation in soft agar: reduced
  invasion of melanoma cells: inhibited

## CN1CCN(Cc2ccc(-c3cn(C4CCC(O)CC4)c4nc(NCCC5CC5)ncc34)cc2)CC1 (stereo not drawn) [UNC2371]
[3]; 25 mg/kg UNC2371 for 5 days vs vehicle control
  arginase mRNA expression: decrease
[3]; 10, 25, or 50 mg/kg UNC2371 for 5 days vs vehicle control
  iNOS (inducible nitric oxide synthase) mRNA expression: decrease
[3]; 10 or 25 mg/kg UNC2371 for 5 days vs vehicle control
  IDO (indoleamine 2,3-dioxygenase) mRNA expression: decrease
[4]
  T cell (CD3 marker) penetration into the core of the tumor: notable increase
[4]; 1 mg/kg UNC2371 (low dose)
  T cells (cell marker CD3) in tumor compared to vehicle: increased
[4]; low dose 1 mg/kg UNC2371
  survivin staining: markedly decreased staining
Colon26 tumor cells; anti-CTLA4, anti-PD1 and low dose UNC2371 as single agents, FIGS. 16 to 18
  single agent efficacy: failed to demonstrate single agent efficacy
Colon26 tumor cells; high dose UNC2371 15 mg/kg TID p.o. x21, alone or with the antibody in the label
  median time to endpoint (TTE): 20.7 days
Colon26 tumor cells; high dose UNC2371 15 mg/kg TID
  tumor growth delay (TGD): 6.9 days
  tumor growth delay (TGD), percent: 50%
  mice remaining through day 15: 8/9
Colon26 tumor cells; low dose UNC2371 1 mg/kg TID p.o. x21, alone or with the antibody in the label
  median time to endpoint (TTE): 14.0 days
Colon26 tumor cells; low dose UNC2371 1 mg/kg TID
  tumor growth delay (TGD): 0.2 days
  tumor growth delay (TGD), percent: 1%
  mice remaining through day 15: 3/9
Colon26 tumor cells; mid dose UNC2371 5 mg/kg TID p.o. x21, alone or with the antibody in the label
  median time to endpoint (TTE): 16.7 days
Colon26 tumor cells; mid dose UNC2371 5 mg/kg TID
  tumor growth delay (TGD): 2.9 days
  tumor growth delay (TGD), percent: 21%
  mice remaining through day 15: 6/9
[5]; Day 8, FIG. 19, combination: low dose or medium dose UNC2371
  CD8+ cells in the tumor: increase
[5]; Day 8, FIG. 20
  Natural Killer (NK) cells in the tumor: increase
B16 melanoma; UNC2371 50 mg/kg oral gavage qd from Day 8, anti-PD1 200 μg IP days 6, 9, 12, FIG. 22A
  secondary tumor volume compared with XRT alone: more effective than XRT alone
B16 melanoma; XRT+UNC2371 vs XRT, FIG. 22C
  tumor derived myeloid-derived suppressor cells (MDSCs): decrease
B16 melanoma; with XRT 8 Gy days 9, 10, 11, UNC2371 50 mg/kg qd, anti-PD1 200 μg IP, FIG. 22B
  abscopal effect on the secondary tumor: enhanced the abscopal effect
